{"source": "patent US20250034109A1", "about": "“SALTS, COCRYSTALS, PHARMACEUTICAL COMPOSITIONS THEREOF, AND METHODS OF TREATMENT INVOLVING THE SAME” (Servier Pharmaceuticals LLC, priority 2023, published 2025)", "key": {"[1]": {"experiment": "Solubility of the drug substance (general statement)", "assay_type": "physicochemical"}, "mutant IDH1": {"tested_on": "mutant IDH1", "conditions": "biochemical and cellular assays; cited from earlier work"}, "mutant IDH2": {"tested_on": "mutant IDH2", "conditions": "biochemical and cellular assays; cited from earlier work"}}, "data": [{"smiles": "C[C@@H](Nc1nc(N[C@H](C)C(F)(F)F)nc(-c2cccc(Cl)n2)n1)C(F)(F)F", "note": "[Compound 1, 6-(6-chloropyridin-2-yl)-N^2,N^4-bis((R)-1,1,1-trifluoropropan-2-yl)-1,3,5-triazine-2,4-diamine]", "values": [{"measurement": "solubility", "setting": "[1]", "value": "poorly soluble"}, {"measurement": "inhibitor of mutant IDH1 protein", "setting": "mutant IDH1", "value": "inhibitor"}, {"measurement": "inhibitor of mutant IDH2 protein", "setting": "mutant IDH2", "value": "inhibitor"}]}]}
